Here are results for two molecules from patent US20230088774A1, “Herbicide Combinations Comprising Glufosinate and Oxadiazon” (BASF SE, priority 2020, published 2023).

Holding throughout (conditions): 504 h
In test [1] the test system is Echinochloa crus-galli (ECHCG). Put plainly: Greenhouse post-emergence weed control, barnyardgrass. Type of test: in vivo. An excerpt:
(§1) For post-emergence treatments, glufosinate and oxadiazon, which had been suspended in water, were applied using spray nozzles providing fine to coarse droplets.
(§2) The herbicide compounds applied in the examples were used as experimental or commercially available solo or premix formulations which have been diluted with tap water to a suitable concentration. Glufosinate was used as a commercial SL formulation containing 280 g ai/l of glufosinate (Liberty 280 SL, BASF). While the PPO herbicide Ronstar Flo containing 380 g ai/l oxadiazon was used (Ronstar Flo, Bayer) formulation.
(§3) The evaluation for plant injury or damage caused by the chemical compositions was carried out using a scale from 0-100% when compared with the untreated control plants. Here, 0 means no damage and 100 means complete destruction of the plants.
(§4) 22., E=X+Y−(X*Y/100), where
(§5) X=effect in percent using herbicide A at an application rate of a;
(§6) Y=effect in percent using herbicide B at an application rate of b;
(§7) E=expected effect (in %) of A+B at application rates a+b.
(§8) The value E corresponds to the effect (plant damage or injury) which is to be expected if the activity of the individual compounds is just additive. If the observed effect is higher than the value E calculated according to Colby, a synergistic effect is present. […]

For test [2], the system named is Amaranthus tamariscinus (AMATA). As to the kind of experiment: Greenhouse post-emergence weed control, common waterhemp. Type of test: in vivo.
Text: as §1, §2, §3, §4, §5, §6, §7, §8

In test [3] the test system is Amaranthus Palmerii (AMAPA). As to the kind of experiment: Greenhouse post-emergence weed control, Palmer amaranth. It is filed as in vivo, Amaranthus palmeri.
Text: as §1, §2, §3, §4, §5, §6, §7, §8

Test [4] deals with Lolium multiflorum (LOLMU). Put plainly: Greenhouse post-emergence weed control, Italian ryegrass. Type of test: in vivo.
Text: as §1, §2, §3, §4, §5, §6, §7, §8

The mark [5] stands for this setting: post-emergence, read-out: Solo Glufosinate % activity.

Turning to `CP(=O)(O)CCC(N)C(=O)O` (racemic) [Glufosinate, (2RS)-2-amino-4-[hydroxy(methyl)phosphinoyl]butyric acid], the inhibition at 327 g/ha was determined as 40% in test [1] (setting [5]), 93% in test [2] (setting [5]), 94% in test [3] (setting [5]) and 33% in test [4] (setting [5]).
With `CC(C)Oc1cc(-n2nc(C(C)(C)C)oc2=O)c(Cl)cc1Cl` [Oxadiazon], the inhibition at 0.8 g/ha in test [1] (ECHCG, 0.8 g ai/ha post-emergence, 1% (v/v) MSO, 21 DAT, scale 0-100% injury, read-out: Solo Oxadiazon % activity) is 30%; in test [2] (AMATA, 0.8 g ai/ha post-emergence, 1% (v/v) MSO, 21 DAT, scale 0-100% injury, read-out: Solo Oxadiazon % activity), 28%; in test [3] (AMAPA, 0.8 g ai/ha post-emergence, 1% (v/v) MSO, 21 DAT, scale 0-100% injury, read-out: Solo Oxadiazon % activity) it was 27%; in test [4] (LOLMU, 0.8 g ai/ha post-emergence, 1% (v/v) MSO, 21 DAT, scale 0-100% injury, read-out: Solo Oxadiazon % activity), 28%.
